These are literature values, as cited in PMC12060149 (RSC Advances, 2025).

The target in one data set is ACE2 (Homo sapiens, UniProt Q9BYF1).
For another data set, the system named is breast cancer tumor. The settings on record: mice.

Sequence of ACE2 (Q9BYF1 18-805): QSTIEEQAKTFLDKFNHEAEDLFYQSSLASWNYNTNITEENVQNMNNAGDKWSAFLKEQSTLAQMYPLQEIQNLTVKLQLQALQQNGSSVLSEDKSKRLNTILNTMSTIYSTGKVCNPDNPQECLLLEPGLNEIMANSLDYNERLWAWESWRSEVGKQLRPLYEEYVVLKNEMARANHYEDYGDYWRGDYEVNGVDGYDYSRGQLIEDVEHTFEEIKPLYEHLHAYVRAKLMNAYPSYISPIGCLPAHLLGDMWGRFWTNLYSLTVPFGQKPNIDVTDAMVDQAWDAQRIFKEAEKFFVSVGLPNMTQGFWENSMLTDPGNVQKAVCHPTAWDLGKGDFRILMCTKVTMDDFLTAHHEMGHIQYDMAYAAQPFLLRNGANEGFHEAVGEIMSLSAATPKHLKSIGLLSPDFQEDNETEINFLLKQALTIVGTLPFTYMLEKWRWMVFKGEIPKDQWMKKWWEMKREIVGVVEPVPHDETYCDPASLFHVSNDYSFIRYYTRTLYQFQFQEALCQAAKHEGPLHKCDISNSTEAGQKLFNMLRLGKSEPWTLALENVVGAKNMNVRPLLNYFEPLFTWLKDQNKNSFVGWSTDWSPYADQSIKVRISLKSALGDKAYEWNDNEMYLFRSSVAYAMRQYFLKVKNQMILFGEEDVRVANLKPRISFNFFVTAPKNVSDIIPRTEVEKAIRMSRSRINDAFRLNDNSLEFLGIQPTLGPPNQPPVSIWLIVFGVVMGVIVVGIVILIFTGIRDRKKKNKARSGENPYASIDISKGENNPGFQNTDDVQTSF

On to `NCCC(=O)N[C@@H](Cc1cnc[nH]1)C(=O)O` [carnosine, Carnosine], for which the “concentration range of mild ACE2 inhibition” value at ACE2 is 100 to 300 mM. For the same molecule, the MCF-7 proliferation entry in the data set on MCF-7 (carnosine in the 100–300 mM range) is listed as “increased but non-significantly”. Also, in the data set with MCF-7 (read-out: IC50 of antiproliferative effect, two other research groups), the IC50 (commonly the concentration needed to halve the response being measured) was around 68 mM. Moreover, the “breast cancer tumor size” value with breast cancer tumor is on record as “reduces the breast cancer tumor size”.
